How the values were obtained:
[1] = molecular target: T1, von Hippel-Lindau disease tumor suppressor/Bromodomain-containing protein 4 (Homo sapiens, UniProt O60885+P40337); assay: PROTAC activity at human VHL/BRD4 in human HeLa cells assessed as maximal degradation of BRD4 incubated for 24 hrs by Western blot analysis relative to control; type: cell-based
MCF7 [2] = assay: Antiproliferative activity against human MCF7 cells assessed as reduction in cell viability incubated for 72 hrs by CellTiter-Glo luminescent assay; type: functional, cell-based; settings: MCF7, 72 h
MCF7 [3] = assay: Cytotoxicity against human MCF7 cells assessed as reduction in cell growth incubated for 72 hrs by CellTiter-Glo luminescent assay; type: functional, cell-based; settings: MCF7, 72 h
[4] = molecular target: T1, von Hippel-Lindau disease tumor suppressor/Bromodomain-containing protein 4; assay: PROTAC activity at human VHL/BRD4 in human MCF7 cells assessed as maximum degradation of BRD4 measured after 18 hrs by Western blot analysis relative to control; type: cell-based
[5] = molecular target: T1, von Hippel-Lindau disease tumor suppressor/Bromodomain-containing protein 4; assay: PROTAC activity at VHL/BRD4 in human MCF7 cells assessed as induction of BRD4 degradation incubated for 18 hrs by Western blotting analysis; type: cell-based
[6] = molecular target: Protein cereblon/Bromodomain-containing protein 4 (Homo sapiens) (UniProt O60885+Q96SW2); assay: PROTAC activity at CRBN/BRD4 in human NAMALVA cells assessed as maximal degradation at 1 uM incubated for 30 mins by Western blot analysis relative to control; type: cell-based
Chain of Protein cereblon/Bromodomain-containing protein 4 (Homo sapiens) (Q96SW2 whole entry, looked up, other chains not shown): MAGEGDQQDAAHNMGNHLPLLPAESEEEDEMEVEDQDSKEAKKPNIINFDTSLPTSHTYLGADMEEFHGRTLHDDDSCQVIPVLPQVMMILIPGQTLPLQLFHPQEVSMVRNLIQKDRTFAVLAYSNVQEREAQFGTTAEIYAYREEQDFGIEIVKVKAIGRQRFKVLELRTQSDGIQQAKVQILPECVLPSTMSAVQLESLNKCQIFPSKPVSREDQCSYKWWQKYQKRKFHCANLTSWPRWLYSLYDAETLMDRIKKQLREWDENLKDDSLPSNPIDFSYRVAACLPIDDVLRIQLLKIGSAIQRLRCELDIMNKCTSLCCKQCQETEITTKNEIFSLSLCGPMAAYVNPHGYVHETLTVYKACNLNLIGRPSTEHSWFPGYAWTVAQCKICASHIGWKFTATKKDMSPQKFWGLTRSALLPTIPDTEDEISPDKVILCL

[7] = molecular target: Epidermal growth factor receptor (Homo sapiens, UniProt P00533); assay: Inhibition of EGFR (unknown origin)
Chain of Epidermal growth factor receptor (P00533 whole entry): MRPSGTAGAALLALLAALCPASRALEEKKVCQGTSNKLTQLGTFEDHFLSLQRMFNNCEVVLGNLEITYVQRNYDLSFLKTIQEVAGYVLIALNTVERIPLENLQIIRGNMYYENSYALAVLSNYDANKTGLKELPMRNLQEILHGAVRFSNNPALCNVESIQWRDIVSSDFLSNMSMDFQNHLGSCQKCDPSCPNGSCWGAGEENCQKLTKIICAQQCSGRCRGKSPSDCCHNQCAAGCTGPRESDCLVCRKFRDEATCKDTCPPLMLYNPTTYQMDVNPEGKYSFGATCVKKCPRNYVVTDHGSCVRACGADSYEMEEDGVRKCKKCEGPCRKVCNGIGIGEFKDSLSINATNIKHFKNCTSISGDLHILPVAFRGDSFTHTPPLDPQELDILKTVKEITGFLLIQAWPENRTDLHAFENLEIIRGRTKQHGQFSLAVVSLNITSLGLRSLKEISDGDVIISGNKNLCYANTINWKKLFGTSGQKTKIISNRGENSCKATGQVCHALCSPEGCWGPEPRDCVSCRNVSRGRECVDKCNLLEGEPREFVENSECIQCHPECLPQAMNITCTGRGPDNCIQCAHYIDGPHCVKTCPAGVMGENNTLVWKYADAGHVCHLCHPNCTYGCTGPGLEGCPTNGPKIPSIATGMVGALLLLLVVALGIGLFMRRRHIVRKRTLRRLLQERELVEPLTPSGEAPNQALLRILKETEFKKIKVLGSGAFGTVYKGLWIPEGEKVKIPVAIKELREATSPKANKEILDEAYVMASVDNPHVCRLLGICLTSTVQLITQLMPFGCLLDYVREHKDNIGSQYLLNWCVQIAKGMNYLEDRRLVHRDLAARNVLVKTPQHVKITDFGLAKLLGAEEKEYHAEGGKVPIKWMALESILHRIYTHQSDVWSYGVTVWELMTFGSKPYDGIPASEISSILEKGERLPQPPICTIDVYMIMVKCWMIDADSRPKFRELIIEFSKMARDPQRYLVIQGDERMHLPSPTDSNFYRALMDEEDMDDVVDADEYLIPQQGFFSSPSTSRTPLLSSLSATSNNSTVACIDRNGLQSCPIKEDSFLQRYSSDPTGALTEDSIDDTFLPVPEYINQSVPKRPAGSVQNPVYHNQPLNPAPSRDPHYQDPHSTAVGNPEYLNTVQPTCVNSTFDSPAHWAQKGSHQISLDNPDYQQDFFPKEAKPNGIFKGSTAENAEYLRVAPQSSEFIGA

OVCAR-8 = assay: Antiproliferative activity against human OVCAR-8 cells assessed as reduction in cell viability incubated for 72 hrs by CCK-8 assay; type: functional, cell-based; settings: OVCAR-8, 72 h
T47D = assay: Antiproliferative activity against human T47D cells assessed as reduction in cell viability incubated for 72 hrs by CCK-8 assay; type: functional, cell-based
[8] = Antiproliferative activity against mouse 3T3 cells assessed as reduction in cell viability incubated for 72 hrs by CCK-8 assay; type: toxicity, cell-based; settings: NIH3T3 cells
[9] = Antiproliferative activity against human HFF-1 cells assessed as reduction in cell viability incubated for 72 hrs by CCK-8 assay; type: toxicity, cell-based
[10] = Antiproliferative activity against human HK-2 cells assessed as reduction in cell viability incubated for 72 hrs by CCK-8 assay; type: toxicity, cell-based

T1 sequence (P40337 whole entry, looked up, other chains not shown): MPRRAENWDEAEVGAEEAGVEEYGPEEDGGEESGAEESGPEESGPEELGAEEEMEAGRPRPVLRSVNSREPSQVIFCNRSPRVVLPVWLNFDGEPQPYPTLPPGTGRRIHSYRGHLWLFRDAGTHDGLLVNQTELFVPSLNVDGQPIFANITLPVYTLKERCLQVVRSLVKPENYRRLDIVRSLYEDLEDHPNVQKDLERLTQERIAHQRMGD

Row | IC50 (MCF7 [2]) [µM] | IC50 (OVCAR-8) [µM] | IC50 (T47D) [µM] | Structure (SMILES) | IC50 at 72 h [8] [µM] | IC50 at 72 h [9] [µM] | IC50 at 72 h [10] [µM] | other results
1 | – | – | – | Cc1ncsc1-c1ccc([C@H](C)NC(=O)[C@@H]2C[C@@H](OC(=O)Cc3ccc(B4OC(C)(C)C(C)(C)O4)cc3)CN2C(=O)[C@@H](NC(=O)COCCCOCCNC(=O)C[C@@H]2N=C(c3ccc(Cl)cc3)c3c(sc(C)c3C)-n3c(C)nnc32)C(C)(C)C)cc1 | – | – | – | Emax [1]: 70%
2 | 0.122 | – | – | Cc1sc2c(c1C)C(c1ccc(Cl)cc1)=N[C@@H](CC(=O)NCCCCCN(Cc1ccc(B(O)O)cc1)c1cccc3c1CN(C1CCC(=O)NC1=O)C3=O)c1nnc(C)n1-2 (stereo partly drawn) | – | – | – | IC50 (MCF7 [3]): 1.02 µM; Emax [4]: 77.5%; DC50 [5]: 0.0312 µM
3 | – | – | – | COc1cc(CN(CCCCNC(=O)COc2cccc3c2C(=O)N(C2CCC(=O)NC2=O)C3=O)C(=O)CC2N=C(c3ccc(Cl)cc3)c3c(sc(C)c3C)-n3c(C)nnc32)c([N+](=O)[O-])cc1OC (stereo not drawn) | – | – | – | Emax [6]: 93%
4 | – | – | – | COc1cc2ncnc(N(Cc3ccc([N+](=O)[O-])cc3)c3ccc(F)c(Cl)c3)c2cc1OCCOCCOCCOCCC(=O)Nc1cccc2c1CN(C1CCC(=O)NC1=O)C2=O (stereo not drawn) | – | – | – | IC50 [7]: 3.56 µM
5 | – | 0.297 | 0.018 | Cc1ncsc1-c1ccc([C@H](C)NC(=O)[C@@H]2C[C@@H](OC(=O)CCCCn3cc(CNC(=O)CC[C@H](NC(=O)c4ccc(NCc5cnc6nc(N)[nH]c(=O)c6n5)cc4)C(=O)O)nn3)CN2C(=O)[C@@H](NC(=O)COCCCOCCNC(=O)C[C@@H]2N=C(c3ccc(Cl)cc3)c3c(sc(C)c3C)-n3c(C)nnc32)C(C)(C)C)cc1 | 1.4 | > 10 | 2.1 | –
6 | 0.12 | 0.215 | 0.013 | Cc1ncsc1-c1ccc([C@H](C)NC(=O)[C@@H]2C[C@@H](O)CN2C(=O)[C@@H](NC(=O)COCCCOCCNC(=O)C[C@@H]2N=C(c3ccc(Cl)cc3)c3c(sc(C)c3C)-n3c(C)nnc32)C(C)(C)C)cc1 | 0.21 | 1.1 | 0.16 | –

Source: ChEMBL document CHEMBL5523673, “Progress in the controllability technology of PROTAC” (Eur J Med Chem, 2024)
